Test system: rabbit skeletal myofibrils (fast skeletal myofibrils)
Assay: Activation of fast skeletal myofibrils (PUMA assay, PK/LDH-coupled ATPase at pCa25)
Type: biochemical
Details: AC1.4 determined according to the procedure of Example 39; reported as class symbols
How it was run: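 Detergent-washed rabbit psoas myofibrils (~90% fast fibres, calcium-regulated) assayed at calcium giving 25% of maximal ATPase rate (pCa25). ADP turnover coupled via pyruvate kinase/lactate dehydrogenase to NADH oxidation, read at 340 nm. Buffer 12 mM PIPES, 2 mM MgCl2, 1 mM DTT, pH 6.8; AC1.4 values derived.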

Row | Mean AC1.4 | SMILES
1 | B (B=1-10 uM) | CC(C)(CNc1ccc(-c2cccc(C(N)=O)c2)nn1)c1ccc(F)cc1F [3-(6-{[2-(2,4-difluorophenyl)-2-methylpropyl]amino}pyridazin-3-yl)benzamide]
2 | A (A=<1 uM) | CC(C)(CNc1ccc(-c2cccc(C(N)=O)c2)nn1)c1ccccc1Cl [3-(6-{[2-(2-chlorophenyl)-2-methylpropyl]amino}pyridazin-3-yl)benzamide]
3 | B (B=1-10 uM) | CCC(CNc1ccc(-c2cccc(C(N)=O)c2)nn1)c1ccccc1F (centres unmarked) [3-(6-{[2-(2-fluoro-phenyl)butyl]amino}pyridazin-3-yl)benzamide]
4 | A (A=<1 uM) | CC(C)(CNc1ccc(-c2cccc(C(N)=O)c2)nn1)c1ccccc1F [3-(6-{[2-(2-fluorophenyl)-2-methylpropyl]amino}pyridazin-3-yl)benzamide]
5 | D (D=>20 uM) | COCCC(CNc1ccc(-c2cccc(C(N)=O)c2)nn1)c1ccccc1F (centres unmarked) [3-(6-{[2-(2-fluorophenyl)-4-methoxybutyl]amino}pyridazin-3-yl)benzamide]
6 | B (B=1-10 uM) | CC(C)(CNc1ccc(-c2cccc(C(N)=O)c2)nn1)c1ncc(F)cc1F [3-(6-{[2-(3,5-difluoro(2-pyridyl))-2-methylpropyl]amino}pyridazin-3-yl)benzamide]
7 | B (B=1-10 uM) | CC(C)(CNc1ccc(-c2cccc(C(N)=O)c2)nn1)c1ncccc1F [3-(6-{[2-(3-fluoro(2-pyridyl))-2-methylpropyl]amino}pyridazin-3-yl)benzamide]
8 | A (A=<1 uM) | CC(C)(CNc1ccc(-c2cccc(C(N)=O)c2)nn1)c1cccc(F)c1 [3-(6-{[2-(3-fluorophenyl)-2-methylpropyl]amino}pyridazin-3-yl)benzamide]
9 | B (B=1-10 uM) | CC(C)(CNc1ccc(-c2cccc(C(N)=O)c2)nn1)c1ccc(Cl)cc1 [3-(6-{[2-(4-chlorophenyl)-2-methylpropyl]amino}pyridazin-3-yl)benzamide]
10 | A (A=<1 uM) | CC(C)(CNc1ccc(-c2cccc(C(N)=O)c2)nn1)c1ccc(F)cc1 [3-(6-{[2-(4-fluorophenyl)-2-methylpropyl]amino}pyridazin-3-yl)benzamide]
11 | C (C=10-20 uM) | CC(C)(CNc1ccc(-c2cccc(C(N)=O)c2)nn1)c1ccc(F)cn1 [3-(6-{[2-(5-fluoro(2-pyridyl))-2-methylpropyl]amino}pyridazin-3-yl)benzamide]
12 | D (D=>20 uM) | NC(=O)c1cccc(-c2ccc(NC3Cc4ccccc4C3)nn2)c1 [3-[6-(indan-2-ylamino)pyridazin-3-yl]benzamide]

The next lines start with the molecule.

Row | SMILES | Mean AC1.4
13 | Cc1cc(NCC(C)(C)c2ccc(F)cc2)nnc1-c1cccc(C(N)=O)c1 [3-(6-{[2-(4-fluorophenyl)-2-methylpropyl]amino}-4-methylpyridazin-3-yl)benzamide] | B (B=1-10 uM)
14 | Cc1cc(NCC(C)(C)c2ccc(F)cc2)nnc1-c1cccc(C#N)c1 [3-(6-{[2-(4-fluorophenyl)-2-methylpropyl]amino}-4-methylpyridazin-3-yl)benzenecarbonitrile] | B (B=1-10 uM)
15 | Cc1cc(-c2cccc(C(N)=O)c2)nnc1NCC(C)(C)c1ccc(F)cc1 [3-(6-{[2-(4-fluorophenyl)-2-methylpropyl]amino}-5-methylpyridazin-3-yl)benzamide] | B (B=1-10 uM)
16 | Cc1cc(-c2cccc(C#N)c2)nnc1NCC(C)(C)c1ccc(F)cc1 [3-(6-{[2-(4-fluorophenyl)-2-methylpropyl]amino}-5-methylpyridazin-3-yl)benzenecarbonitrile] | C (C=10-20 uM)
17 | CC(C)(CNc1ccc(-c2noc(C(N)=O)n2)nn1)c1ccc(F)cc1 [3-(6-{[2-(4-fluorophenyl)-2-methylpropyl]amino}pyridazin-3-yl)-1,2,4-oxadiazole-5-carboxamide] | C (C=10-20 uM)
18 | CC(C)(CNc1ccc(-c2cccc(C#N)c2)nn1)c1ccc(F)cc1 [3-(6-{[2-(4-fluorophenyl)-2-methylpropyl]amino}pyridazin-3-yl)benzenecarbonitrile] | B (B=1-10 uM)
19 | CC(C)(CNc1ccc(-c2cccc(C(=O)N3CCOCC3)c2)nn1)c1ccc(F)cc1 [3-(6-{[2-(4-fluorophenyl)-2-methylpropyl]amino}pyridazin-3-yl)phenyl morpholin-4-yl ketone] | B (B=1-10 uM)
20 | CC(C)(CNc1ccc(-c2cccc(C(=O)c3ccccc3)c2)nn1)c1ccc(F)cc1 [3-(6-{[2-(4-fluorophenyl)-2-methylpropyl]amino}pyridazin-3-yl)phenyl phenyl ketone] | D (D=>20 uM)
21 | CC(C)(CNc1ccc(-c2cccc(C(=O)N3CCNCC3)c2)nn1)c1ccc(F)cc1 [3-(6-{[2-(4-fluorophenyl)-2-methylpropyl]amino}pyridazin-3-yl)phenyl piperazinyl ketone] | B (B=1-10 uM)
22 | CC(C)(CNc1ccc(-c2cccc(C(=O)N3CCCCC3)c2)nn1)c1ccc(F)cc1 [3-(6-{[2-(4-fluorophenyl)-2-methylpropyl]amino}pyridazin-3-yl)phenyl piperidyl ketone] | B (B=1-10 uM)
23 | CC(C)(CNc1ccc(-c2cccnc2O)nn1)c1ccc(F)cc1 [3-(6-{[2-(4-fluorophenyl)-2-methylpropyl]amino}pyridazin-3-yl)pyridin-2-ol] | B (B=1-10 uM)
24 | NC(=O)c1cccc(-c2ccc(NCC3(C(N)=O)CCC3)nn2)c1 [3-(6-{[(carbamoylcyclo-butyl)methyl]amino}pyridazin-3-yl)benzamide] | D (D=>20 uM)
25 | CC1(C)CN(c2ccc(-c3cccc(C(N)=O)c3)nn2)c2ccccc21 [3-[6-(3,3-dimethylindolinyl)pyridazin-3-yl]benzamide] | D (D=>20 uM)

Same assay, conditions: median AC1.4 class, procedure of Example 39

Row | Mean AC1.4 | SMILES
26 | A (A=<1 uM) | CC(C)(CNc1ccc(-c2cccc(C(N)=O)c2)nn1)c1ncccc1Cl [3-(6-{[2-(3-chloro(2-pyridyl))-2-methylpropyl]amino}pyridazin-3-yl)benzamide]
27 | D (D=>20 uM) | NC(=O)c1cccc(-c2ccc(NC(=O)c3ccccc3)nn2)c1 [3-[6-(phenylcarbonylamino)pyridazin-3-yl]benzamide]

Continued, molecule first:

Row | SMILES | Mean AC1.4
28 | CC(C)(CNc1ccc(-c2cc(C(N)=O)ccc2F)nn1)c1ncccc1Cl [3-(6-{[2-(3-chloro(2-pyridyl))-2-methylpropyl]amino}pyridazin-3-yl)-4-fluorobenzamide] | A (A=<1 uM)
29 | CC(C)(CNc1ccc(-c2cc(C#N)ccc2F)nn1)c1ncccc1Cl [3-(6-{[2-(3-chloro(2-pyridyl))-2-methylpropyl]amino}pyridazin-3-yl)-4-fluorobenzenecarbonitrile] | B (B=1-10 uM)
30 | CC(C)(CNc1ccc(-c2cccc(C#N)c2)nn1)c1ncccc1Cl [3-(6-{[2-(3-chloro(2-pyridyl))-2-methylpropyl]amino}pyridazin-3-yl)benzenecarbonitrile] | B (B=1-10 uM)
31 | N#Cc1cccc(-c2ccc(NCC3(c4ccccn4)CCC3)nn2)c1 [3-(6-{[(2-pyridylcyclobutyl)methyl]ami-no}pyridazin-3-yl)benzenecarbonitrile] | B (B=1-10 uM)
32 | CN(CC1(c2ccccn2)CCC1)c1ccc(-c2cccc(C(N)=O)c2)nn1 [3-(6-{methyl[(2-pyridylcyclobutyl)methyl]ami-no}pyridazin-3-yl)benzamide] | D (D=>20 uM)

Source: patent US10076519B2 (CYTOKINETICS, INC., priority 2010, dated 2018)
